Laboratory results from patent US20130035344A1, “PHARMACEUTICAL COMPOSITION FOR ORAL ADMINISTRATION” (KOWA Co., Ltd., priority 2009, published 2013).

Key:
Format in all cases: physicochemical
[1] = Solubility of compound a in water
Excerpt: However, compound a has low solubility in weakly acidic environments to alkaline environments (for example, the solubility in water is 0.05% (W/V)). Therefore, in the case of patients of achlorhydria, which is considered to develop more frequently in elderly people, there has been a concern that the dissolubility of the compound a from the pharmaceutical composition in the stomach may be insufficient, and there may be variations in the efficacy of the drug.

[2] = Dissolution test, JP second method (paddle method), second fluid for dissolution test
Procedure: The dissolubility of the samples 1 to 6 was examined according to the second method (paddle method) of the dissolution test method according to the general test methods of the Japanese Pharmacopoeia.
103.65 mg of each of the samples 1 to 6 (53.65 mg for sample 2 only) was introduced into 900 mL of the second fluid for dissolution test according to the Japanese Pharmacopoeia, and the test was carried out under the conditions of a temperature of 37±0.5° C. and a speed of paddle rotation of 50 rpm. Thus, the concentrations of the compound a after 5, 10, 15, 30, 45 and 60 minutes were measured. The sample solution collected at each time point was filtered through a membrane filter made of PTFE (DISMIC-25HP manufactured by Toyo Roshi Kaisha, Ltd.) having a pore size of 0.45 μm, and was analyzed by a high performance liquid chromatographic method using a reversed phase column (manufactured by Nomura Chemical Co., Ltd.; Develosil ODS-HG-5). Thus, the dissolution rates were calculated.
The dissolubility of the samples 7 to 15 was examined by carrying out the test in the same manner as that described in Test Example 1, except that 153.65 mg of sample 7, 98.65 mg of sample 8, 93.65 mg of sample 9, 88.65 mg of sample 10, 78.65 mg of sample 11, 68.65 mg of sample 12, 63.65 mg of sample 13, 58.65 mg of sample 14, and 55.65 mg of sample 15 were respectively introduced into 900 mL of the second fluid for dissolution test according to the Japanese Pharmacopoeia.
The dissolubility of the tablets of Examples 8 to 10 and Comparative Examples 9 and 10 was examined by carrying out the test by the same method as that described in Test Example 1, except that one tablet each of the Examples and Comparative Examples were introduced into 900 mL of the second fluid for dissolution test according to the Japanese Pharmacopoeia.
The dissolubility of the tablets of Example 11 and Comparative Example 11 was examined by carrying out the test in the same manner as that described in Test Example 1, except that each of tablets of Example 11 and Comparative Example 11 was introduced into 900 mL of the second fluid for dissolution test according to the Japanese Pharmacopoeia.

[3] = Measurement of pH value of sample or tablet in purified water
Procedure: 103.65 mg of each of the samples 1 to 6 (53.65 mg for sample 2 only) was introduced into a beaker, and 50 mL of purified water was added thereto. While the mixture was stirred with a magnetic stirrer, the pH of the solution was measured with a glass electrode type hydrogen ion concentration meter (manufactured by Toa Electronics, Inc.; HM-50V). 50 mL of purified water was further added thereto, and then the measurement of pH was carried out in the same manner.
The pH values of the samples 7 to 15 were measured in the same manner as that used in Test Example 2. Meanwhile 153.65 mg of sample 7, 98.65 mg of sample 8, 93.65 mg of sample 9, 88.65 mg of sample 10, 78.65 mg of sample 11, 68.65 mg of sample 12, 63.65 mg of sample 13, 58.65 mg of sample 14, and 55.65 mg of sample 15 were used.
The pH values of the tablets of Examples 8 to 10 and Comparative Examples 9 and 10 were measured by the same method as that used in Test Example 2. Meanwhile, one tablet was used for each measurement.
The pH values of the tablets of Example 11 and Comparative Example 11 were measured in the same manner as that used in Test Example 2. Meanwhile, one tablet was used for each measurement.

Structure (SMILES) | solubility in water [1] | dissolubility of compound a (in words) ([2]; JP second fluid, paddle method) | pH (100 mL) ([3]; after a further 50 mL purified water (100 mL)) | pH (50 mL) ([3]; sample or one tablet in 50 mL purified water, stirred) | dissolution rate of compound a, Time (min) 0 ([2]; 0 min, 900 mL JP second fluid, 37±0.5° C., paddle 50 rpm) [%] | dissolution rate of compound a, Time (min) 5 ([2]; 5 min, 900 mL JP second fluid, 37±0.5° C., paddle 50 rpm) [%] | dissolution rate of compound a, Time (min) 10 ([2]; 10 min, 900 mL JP second fluid, 37±0.5° C., paddle 50 rpm) [%] | dissolution rate of compound a, Time (min) 15 ([2]; 15 min, 900 mL JP second fluid, 37±0.5° C., paddle 50 rpm) [%] | dissolution rate of compound a, Time (min) 30 ([2]; 30 min, 900 mL JP second fluid, 37±0.5° C., paddle 50 rpm) [%] | dissolution rate of compound a, Time (min) 45 ([2]; 45 min, 900 mL JP second fluid, 37±0.5° C., paddle 50 rpm) [%] | dissolution rate of compound a, Time (min) 60 ([2]; 60 min, 900 mL JP second fluid, 37±0.5° C., paddle 50 rpm) [%]
CSc1cc(C)nc(SC)c1NC(=O)CN1CCN(CCSc2nc3ccccc3[nH]2)CC1 [compound a, 2-[4-[2-(Benzimidazol-2-ylthio)ethyl]piperazin-1-yl]-N-[2,4-bis(methylthio)-6-methyl-3-pyridyl]acetamide] | 0.05 % (W/V) | hardly dissolved |  |  |  |  |  |  |  |  | 
CSc1cc(C)nc(SC)c1NC(=O)CN1CCN(CCSc2nc3ccccc3[nH]2)CC1 [Comparative Example 1, 2-[4-[2-(Benzimidazol-2-ylthio)ethyl]piperazin-1-yl]-N-[2,4-bis(methylthio)-6-methyl-3-pyridyl]acetamide] |  |  | 5.07 | 5.02 | 0 | 0 | 5.7 | 3.1 | 5.2 | 7.1 | 10.2
